# Test results reported in ChEMBL document CHEMBL1201862, “PubChem BioAssay data set” (2004).
# Calls of active or inactive are those of the source.
# What was measured:
# [1] = molecular target: Heat shock protein HSP 90-alpha (Homo sapiens, UniProt P07900); assay type: functional, organism-based
# [2] = molecular target: T1, High affinity choline transporter 1 (Homo sapiens, UniProt Q9GZV3); assay: CHT inhibitors, dose response, cell-based, 5-point CRC, membrane potential dye (AID 504840); assay type: functional
# T1 sequence (Q9GZV3 whole entry): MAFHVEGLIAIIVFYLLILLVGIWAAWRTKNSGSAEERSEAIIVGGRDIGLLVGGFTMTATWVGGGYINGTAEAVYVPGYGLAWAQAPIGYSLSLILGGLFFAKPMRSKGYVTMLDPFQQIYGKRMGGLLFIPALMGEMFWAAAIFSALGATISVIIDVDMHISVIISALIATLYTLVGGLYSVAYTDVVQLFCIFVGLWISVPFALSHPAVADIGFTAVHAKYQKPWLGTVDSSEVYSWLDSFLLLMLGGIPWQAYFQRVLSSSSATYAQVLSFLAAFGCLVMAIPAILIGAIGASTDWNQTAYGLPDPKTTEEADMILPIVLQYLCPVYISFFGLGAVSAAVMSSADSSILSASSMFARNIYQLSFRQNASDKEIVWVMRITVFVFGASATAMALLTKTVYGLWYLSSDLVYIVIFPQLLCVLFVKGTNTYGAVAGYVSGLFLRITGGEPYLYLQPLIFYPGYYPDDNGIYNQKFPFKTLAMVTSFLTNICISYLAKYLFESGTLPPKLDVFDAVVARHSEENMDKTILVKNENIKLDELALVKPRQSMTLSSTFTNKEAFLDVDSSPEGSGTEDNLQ
# [3] = molecular target: T2, Microphthalmia-associated transcription factor (Homo sapiens, UniProt O75030); assay: TRPM1 promoter luciferase signal decrease, dose response, MITF inhibitor project, cell-based, SK-MEL-5, cherry-picked, set 3 (AID 493073); assay type: functional
# T2 sequence (O75030 whole entry): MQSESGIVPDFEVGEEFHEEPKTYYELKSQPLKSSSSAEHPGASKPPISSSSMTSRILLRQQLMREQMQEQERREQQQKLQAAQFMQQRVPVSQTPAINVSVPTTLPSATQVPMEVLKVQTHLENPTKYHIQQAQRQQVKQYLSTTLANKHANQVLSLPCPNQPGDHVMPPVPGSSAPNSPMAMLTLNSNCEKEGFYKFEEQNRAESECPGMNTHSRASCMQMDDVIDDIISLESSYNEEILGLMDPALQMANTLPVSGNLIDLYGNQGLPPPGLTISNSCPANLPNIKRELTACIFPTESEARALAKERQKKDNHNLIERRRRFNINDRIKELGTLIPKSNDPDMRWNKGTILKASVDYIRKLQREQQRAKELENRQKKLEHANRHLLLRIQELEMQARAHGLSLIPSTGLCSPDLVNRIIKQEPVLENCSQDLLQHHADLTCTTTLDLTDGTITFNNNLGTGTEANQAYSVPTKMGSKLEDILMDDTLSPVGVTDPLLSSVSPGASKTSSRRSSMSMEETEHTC
# [4] = molecular target: T3, Long-chain-fatty-acid--AMP ligase FadD28 (Mycobacterium tuberculosis, UniProt P9WQ59); assay: Fluorescence polarization aasay to screen for inhibitors that compete for the binding of FadD28 to a bisubstrate Measured in Biochemical System Using Plate Reader - 2147-01_Inhibitor_Dose_CherryPick_Activity.; assay type: functional, Mycobacterium tuberculosis H37Rv
# T3 sequence (P9WQ59 whole entry): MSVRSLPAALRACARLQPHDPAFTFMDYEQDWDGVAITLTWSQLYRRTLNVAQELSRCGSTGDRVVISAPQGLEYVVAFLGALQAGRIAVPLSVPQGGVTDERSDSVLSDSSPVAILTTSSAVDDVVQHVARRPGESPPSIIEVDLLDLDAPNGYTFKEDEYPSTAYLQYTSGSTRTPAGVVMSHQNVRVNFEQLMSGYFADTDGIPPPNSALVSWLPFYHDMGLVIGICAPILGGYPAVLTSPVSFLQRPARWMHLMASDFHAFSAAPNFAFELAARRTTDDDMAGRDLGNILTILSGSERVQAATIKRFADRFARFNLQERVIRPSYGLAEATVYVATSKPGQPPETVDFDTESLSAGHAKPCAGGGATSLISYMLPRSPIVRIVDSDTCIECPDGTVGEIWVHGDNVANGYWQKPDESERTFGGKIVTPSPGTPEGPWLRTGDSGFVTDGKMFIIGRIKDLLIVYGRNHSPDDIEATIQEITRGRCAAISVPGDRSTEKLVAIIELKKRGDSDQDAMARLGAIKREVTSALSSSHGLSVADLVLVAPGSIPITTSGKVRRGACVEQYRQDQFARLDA
# [5] = molecular target: T4, Ubiquitin-conjugating enzyme E2 N (Homo sapiens, UniProt P61088); assay type: functional;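 also: Dose-response confirmation in a TR-FRET assay detecting UBC13-driven polyubiquitin chain formation, inhibition measured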
# T4 sequence (P61088 whole entry): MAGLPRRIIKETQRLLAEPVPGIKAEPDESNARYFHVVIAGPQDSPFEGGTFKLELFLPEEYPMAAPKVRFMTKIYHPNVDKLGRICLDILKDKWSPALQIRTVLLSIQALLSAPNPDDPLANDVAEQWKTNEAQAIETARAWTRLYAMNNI
# Fatty acid synthase [6] = molecular target: T5, Fatty acid synthase (Homo sapiens, UniProt P49327); assay: FAS thioesterase domain inhibitors, dose response, biochemical, endpoint fluorescence intensity, uHTS hits (AID 624327); assay type: functional;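 also: fluorescence from hydrolysis of an O-methyl fluorescein acyl ester substrate by the enzyme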
# Fatty acid synthase [7] = molecular target: T5, Fatty acid synthase; assay: FAS thioesterase domain inhibitors, dose response, biochemical, kinetic fluorescence intensity (AID 624326); assay type: functional;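 also: rate of fluorescence rise from hydrolysis of a fluorogenic O-methyl fluorescein ester substrate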
# [8] = tested on: Streptococcus sp. 'group A'; assay: growth inhibition of control SK(-) GAS strain, dose response, counter-screen for streptokinase expression inhibitor project, luminescence, kanamycin, BacTiterGlo, confirmation (AID 1900); assay type: functional, organism-based
# [9] = molecular target: T6, Heat shock factor protein 1 (Mus musculus, UniProt P38532); assay: inhibition of MG132-induced HSE-luciferase signal, confirmation, cell-based, NIH3T3, luminescence, dose retest (AID 2382); assay type: functional;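 also: NIH3T3 fibroblasts with HSF1-driven luciferase reporter stressed by proteasome inhibitor MG132; luminescence from HSF1-driven luciferase expression after 8 hours of MG132 stress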
# T6 sequence (P38532 whole entry): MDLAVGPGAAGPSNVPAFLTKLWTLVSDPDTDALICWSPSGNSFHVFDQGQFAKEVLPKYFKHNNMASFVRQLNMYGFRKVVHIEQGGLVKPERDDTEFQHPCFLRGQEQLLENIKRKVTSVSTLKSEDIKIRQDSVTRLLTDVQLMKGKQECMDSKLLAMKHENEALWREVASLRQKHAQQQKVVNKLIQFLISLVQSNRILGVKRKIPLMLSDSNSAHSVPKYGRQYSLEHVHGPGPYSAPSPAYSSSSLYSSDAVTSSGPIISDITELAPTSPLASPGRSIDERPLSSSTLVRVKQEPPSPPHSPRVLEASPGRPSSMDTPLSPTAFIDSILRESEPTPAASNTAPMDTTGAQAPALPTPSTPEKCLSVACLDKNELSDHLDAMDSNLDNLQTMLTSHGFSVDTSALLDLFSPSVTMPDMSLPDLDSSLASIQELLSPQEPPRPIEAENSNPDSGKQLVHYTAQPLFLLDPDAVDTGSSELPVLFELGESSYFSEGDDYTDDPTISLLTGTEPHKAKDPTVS
# Streptokinase A = molecular target: T7, Streptokinase A (Streptococcus pyogenes serotype M1, UniProt P10520); assay: S. pyogenes streptokinase expression inhibitors, potency, dose response, plasminogen activation absorbance, OD405 (AID 1914); assay type: functional, Streptococcus pyogenes M1 GAS;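 also: secreted streptokinase activity via plasminogen activation per viability signal from cell pellet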
# T7 sequence (P10520 whole entry): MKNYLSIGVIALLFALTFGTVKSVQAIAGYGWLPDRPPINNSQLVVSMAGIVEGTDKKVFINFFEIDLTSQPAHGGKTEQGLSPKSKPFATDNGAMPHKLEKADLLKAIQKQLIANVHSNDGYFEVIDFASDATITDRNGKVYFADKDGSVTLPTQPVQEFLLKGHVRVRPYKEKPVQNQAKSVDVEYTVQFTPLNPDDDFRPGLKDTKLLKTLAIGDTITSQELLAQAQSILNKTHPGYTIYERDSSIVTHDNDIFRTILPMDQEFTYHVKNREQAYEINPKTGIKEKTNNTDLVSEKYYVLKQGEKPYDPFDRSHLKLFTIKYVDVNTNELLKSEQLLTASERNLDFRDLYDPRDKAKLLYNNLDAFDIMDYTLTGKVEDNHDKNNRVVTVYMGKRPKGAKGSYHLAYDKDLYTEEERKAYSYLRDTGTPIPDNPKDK
# Streptococcus = assay: Group A Streptococcus viability loss, dose response, counter-screen for streptokinase expression inhibitor project, luminescence, BacTiterGlo (AID 1915); assay type: functional, organism-based;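 also: potency for reduction of bacterial viability or growth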
# cells [10] = assay type: functional, cell-based
# cells [11] = assay type: functional, cell-based; remark: listed apart in the source
# [12] = Luminescence Cell-Based Dose Retest to Confirm Inhibitors of Cancer Stem Cells. [Related pubchem assays (depositor defined):AID2717, AID2721]; assay type: functional; conditions: Homo sapiens
# INS1 = assay: beta cell apoptosis inhibitors, cytokine rescue, dose response, luminescence, retest (AID 449756); assay type: functional, cell-based; conditions: Rattus norvegicus;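 also: cell death triggered by IL-1 beta plus TNF-alpha plus IFN-gamma mixture; protective hits raise ATP signal compared with cytokine alone wells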
# T5 sequence (P49327 whole entry, the tested form may be a part): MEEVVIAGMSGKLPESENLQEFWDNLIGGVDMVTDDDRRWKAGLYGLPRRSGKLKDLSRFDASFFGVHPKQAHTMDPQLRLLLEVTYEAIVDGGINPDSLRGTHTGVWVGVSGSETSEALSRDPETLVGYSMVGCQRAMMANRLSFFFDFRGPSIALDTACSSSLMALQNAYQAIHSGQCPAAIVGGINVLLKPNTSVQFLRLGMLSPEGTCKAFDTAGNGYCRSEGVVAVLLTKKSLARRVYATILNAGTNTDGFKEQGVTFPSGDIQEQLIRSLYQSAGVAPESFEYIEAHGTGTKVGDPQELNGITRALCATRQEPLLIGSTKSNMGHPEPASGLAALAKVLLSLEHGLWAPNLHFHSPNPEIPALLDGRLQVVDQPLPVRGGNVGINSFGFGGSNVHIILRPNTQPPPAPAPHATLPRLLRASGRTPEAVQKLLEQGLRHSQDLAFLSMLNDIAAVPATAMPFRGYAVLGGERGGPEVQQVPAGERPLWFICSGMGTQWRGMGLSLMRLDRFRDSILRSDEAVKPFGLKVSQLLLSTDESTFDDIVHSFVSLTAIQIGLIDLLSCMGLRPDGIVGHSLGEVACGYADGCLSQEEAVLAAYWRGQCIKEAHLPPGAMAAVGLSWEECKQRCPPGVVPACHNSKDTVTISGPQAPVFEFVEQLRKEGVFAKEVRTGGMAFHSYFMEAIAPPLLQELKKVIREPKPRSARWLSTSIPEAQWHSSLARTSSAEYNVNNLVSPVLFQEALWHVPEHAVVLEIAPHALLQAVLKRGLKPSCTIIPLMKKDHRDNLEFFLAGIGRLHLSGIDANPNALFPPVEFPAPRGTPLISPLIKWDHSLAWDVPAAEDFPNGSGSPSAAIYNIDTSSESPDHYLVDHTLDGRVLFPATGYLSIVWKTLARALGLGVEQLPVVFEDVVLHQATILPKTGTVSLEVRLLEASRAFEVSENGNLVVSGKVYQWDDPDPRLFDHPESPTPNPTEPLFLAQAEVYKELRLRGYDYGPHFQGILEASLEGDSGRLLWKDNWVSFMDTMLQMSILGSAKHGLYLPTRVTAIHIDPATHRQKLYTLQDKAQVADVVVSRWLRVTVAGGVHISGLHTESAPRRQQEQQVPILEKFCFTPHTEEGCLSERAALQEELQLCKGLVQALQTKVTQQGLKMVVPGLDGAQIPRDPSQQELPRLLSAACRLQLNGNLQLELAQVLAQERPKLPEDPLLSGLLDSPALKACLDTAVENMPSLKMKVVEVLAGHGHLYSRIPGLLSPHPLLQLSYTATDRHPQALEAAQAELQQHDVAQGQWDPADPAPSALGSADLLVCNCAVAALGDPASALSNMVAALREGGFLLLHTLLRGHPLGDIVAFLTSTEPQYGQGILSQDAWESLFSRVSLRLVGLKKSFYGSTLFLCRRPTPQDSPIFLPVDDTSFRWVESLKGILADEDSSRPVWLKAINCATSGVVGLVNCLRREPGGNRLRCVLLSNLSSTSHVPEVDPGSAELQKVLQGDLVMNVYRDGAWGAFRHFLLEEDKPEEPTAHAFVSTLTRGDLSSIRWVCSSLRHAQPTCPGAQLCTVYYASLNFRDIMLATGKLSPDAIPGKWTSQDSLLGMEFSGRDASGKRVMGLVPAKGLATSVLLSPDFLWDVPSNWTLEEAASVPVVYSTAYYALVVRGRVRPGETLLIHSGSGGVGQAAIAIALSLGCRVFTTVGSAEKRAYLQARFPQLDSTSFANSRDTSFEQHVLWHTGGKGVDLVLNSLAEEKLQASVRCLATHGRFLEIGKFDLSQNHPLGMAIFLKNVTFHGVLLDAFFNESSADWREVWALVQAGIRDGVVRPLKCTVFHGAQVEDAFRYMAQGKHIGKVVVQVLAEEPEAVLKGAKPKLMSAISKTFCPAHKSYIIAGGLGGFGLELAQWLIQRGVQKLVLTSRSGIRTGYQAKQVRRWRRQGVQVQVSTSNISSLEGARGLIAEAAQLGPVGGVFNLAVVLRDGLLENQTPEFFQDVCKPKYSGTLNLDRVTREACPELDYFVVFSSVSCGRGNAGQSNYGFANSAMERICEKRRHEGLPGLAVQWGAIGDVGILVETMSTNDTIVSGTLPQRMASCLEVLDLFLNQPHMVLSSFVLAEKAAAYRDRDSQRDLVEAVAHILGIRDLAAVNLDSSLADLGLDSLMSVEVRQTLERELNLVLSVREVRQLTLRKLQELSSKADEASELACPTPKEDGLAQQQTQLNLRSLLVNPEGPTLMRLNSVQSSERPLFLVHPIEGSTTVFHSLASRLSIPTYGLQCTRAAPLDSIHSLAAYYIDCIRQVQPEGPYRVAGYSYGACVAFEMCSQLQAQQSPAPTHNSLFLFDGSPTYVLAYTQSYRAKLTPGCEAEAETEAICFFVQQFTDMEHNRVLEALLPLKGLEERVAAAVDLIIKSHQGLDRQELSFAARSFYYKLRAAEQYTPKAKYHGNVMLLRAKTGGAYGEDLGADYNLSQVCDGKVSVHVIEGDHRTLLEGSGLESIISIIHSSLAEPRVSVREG
compound,measurement,setting,value
CCN(CC)S(=O)(=O)c1cccc(C(=O)NCC(c2ccccc2)N(C)C)c1 (stereo not given),AC50,[1],3.2 µM (active)
COc1ccccc1/C=C1\SC(=O)N(CC(=O)NCCCn2ccnc2)C1=O,IC50,[2],19.1 µM (active)
CCN1c2ccccc2NC2C1C(C(C)=O)C(=O)N2c1ccc(Cl)cc1 (stereo not given),AC50,[3],12.7 µM (active)
S=C(NCc1ccccc1)NCc1cccc(CNC(=S)NCc2ccccc2)c1,AC50,[4],27.3 µM (active)
Cc1ccc(C(=O)N2CCN(c3ccccc3)CC2)cc1S(=O)(=O)N1CCCC1,IC50,[2],11 µM (active)
COc1ccc(OCCCC(=O)Nc2ccc(S(=O)(=O)N3CCOCC3)cc2)cc1,IC50,[5],> 20 µM (inactive)
CC(=O)NC(C)c1cc(Cl)c2ccccc2c1O (stereo not given),IC50,[5],> 20 µM (inactive)
Cc1ccc(C(C)C)c(OCCOCCN2CCNCC2)c1,IC50,[2],13.8 µM (active)
O=C(CCC1CCCC1)NCCCNC(=O)CCC1CCCC1,IC50,[2],15.8 µM (active)
C=CC(n1cncn1)C(O)(c1ccccc1)c1ccccc1 (stereo not given),AC50,[1],0.826 µM (active)
Cc1ccc(C(=O)NCC(=O)OCc2nnc(-c3ccc([N+](=O)[O-])cc3)o2)cc1,IC50,Fatty acid synthase [6],4.73 µM (active)
same,IC50,Fatty acid synthase [7],5.56 µM (active)
O=C(N/N=C/c1ccccn1)c1cc(-c2ccccc2Cl)n[nH]1,IC50,[5],> 20 µM (inactive)
Cc1cccc(C)c1/N=C1\C(Cl)=C(O)OC1OC(=O)c1ccccc1 (stereo not given),IC50,Fatty acid synthase [6],4.46 µM (active)
same,IC50,Fatty acid synthase [7],4.54 µM (active)
Cc1ccc(N/N=C(\C=O)C(=O)c2ccc(Cl)cc2)cc1,EC50,[8],8.86 µM (active)
same,EC50,[9],4.78 µM (active)
same,EC50,Streptokinase A,> 50 µM (not active)
same,EC50,Streptococcus,14.8 µM (active)
same,AC50,[1],5.6 µM (active)
COc1ccc2nc(C)cc(SCC(=O)N/N=C/c3ccc(O)cc3O)c2c1,EC50,cells [10],12.9 µM (active)
same,EC50,cells [11],> 350 µM (not active)
same,AC50,[12],2.74 µM (active)
same,AC50,[3],10.1 µM (active)
same,AC50,INS1,2.65 µM (active)
